# Results: ChEMBL document CHEMBL3808326, “Design and synthesis of novel hydroxypyridinone derivatives as potential tyrosinase inhibitors” (Bioorg Med Chem Lett, 2016)
# Calls of active or inactive are those of the source. The calls are words filed in the database; no cut-off is given here.
# Experiments:
# Tyrosinase [1] = molecular target: T1, Tyrosinase (Agaricus bisporus, UniProt O42713); assay: Inhibition of monophenolase activity of mushroom tyrosinase using L-tyrosine as substrate incubated for 10 mins by UV-Visible spectrophotometric analysis
# T1 sequence (O42713 whole entry): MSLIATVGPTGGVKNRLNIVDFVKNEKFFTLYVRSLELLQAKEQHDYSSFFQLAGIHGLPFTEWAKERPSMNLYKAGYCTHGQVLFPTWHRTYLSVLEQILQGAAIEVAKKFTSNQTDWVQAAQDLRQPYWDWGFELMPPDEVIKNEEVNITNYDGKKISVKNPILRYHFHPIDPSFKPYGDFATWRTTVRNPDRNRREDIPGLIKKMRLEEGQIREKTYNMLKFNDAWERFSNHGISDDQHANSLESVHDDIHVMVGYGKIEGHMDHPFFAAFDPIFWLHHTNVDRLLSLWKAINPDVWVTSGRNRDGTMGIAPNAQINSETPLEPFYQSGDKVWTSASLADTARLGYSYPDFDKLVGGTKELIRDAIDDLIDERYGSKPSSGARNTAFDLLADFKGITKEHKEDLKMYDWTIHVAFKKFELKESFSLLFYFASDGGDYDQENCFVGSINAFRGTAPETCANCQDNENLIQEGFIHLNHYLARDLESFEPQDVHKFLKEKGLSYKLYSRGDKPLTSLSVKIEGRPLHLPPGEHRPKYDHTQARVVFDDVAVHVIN
# Tyrosinase [2] = molecular target: T1, Tyrosinase; assay: Inhibition of diphenolase activity of mushroom tyrosinase using L-DOPA as substrate incubated for 10 mins by UV-Visible spectrophotometric analysis
# [3] = molecular target: T2, Tyrosinase (Agaricus bisporus) (UniProt O42713); assay: Reversible inhibition of diphenolase activity of mushroom tyrosinase using L-DOPA as substrate at 4.17 to 33.33 uM incubated for 10 mins by UV-Visible spectrophotometric analysis
# T2 sequence (whole entry): T1 sequence (O42713 whole entry)
# Tyrosinase [4] = molecular target: T1, Tyrosinase; assay: Inhibition of diphenolase activity of mushroom tyrosinase using L-DOPA as substrate assessed as enzyme-inhibitor complex incubated for 10 mins by Lineweaver-Burk plot method
# Tyrosinase [5] = molecular target: T1, Tyrosinase; assay: Inhibition of diphenolase activity of mushroom tyrosinase using L-DOPA as substrate assessed as enzyme-substrate-inhibitor complex incubated for 10 mins by Lineweaver-Burk plot method
# [6] = molecular target: T2, Tyrosinase (Agaricus bisporus); assay: Competitive-uncompetitive-mixed type inhibition of diphenolase activity of mushroom tyrosinase using L-DOPA as substrate incubated for 10 mins by Lineweaver-Burk plot method
# [7] = Copper reducing activity in 0.4 mM cupric sulfate solution assessed as cuprous ion formation up to 0.15 mM after 10 mins by bathocuproinedisulfonic acid dye based spectrophotometric analysis; assay type: physicochemical
# [8] = Copper chelating activity in pH 5 copper sulfate solution at 2.857 mM after 10 mins by tetramethylmurexide dye based assay relative to control; assay type: physicochemical; conditions: pH 5, 10 min, 2857 µM
# [9] = Copper chelating activity in pH 7.4 copper sulfate solution at 2.857 mM after 10 mins by tetramethylmurexide dye based assay relative to control; assay type: physicochemical; conditions: pH 7.4, 10 min, 2857 µM
structure (smiles),measurement,setting,value
CC(C)[C@H](NC(=O)[C@@H](N)Cc1ccccc1)C(=O)NCc1cc(=O)c(O)c[nH]1,IC50,Tyrosinase [1],14.3 µM
CC(C)[C@H](NC(=O)OCc1ccccc1)C(=O)OCc1cc(=O)c(O)c[nH]1,IC50,Tyrosinase [1],12.5 µM
CC(C)C[C@H](NC(=O)OCc1ccccc1)C(=O)OCc1cc(=O)c(O)c[nH]1,IC50,Tyrosinase [1],28.7 µM
CC[C@H](C)[C@H](NC(=O)OCc1ccccc1)C(=O)OCc1cc(=O)c(O)c[nH]1,IC50,Tyrosinase [1],15.6 µM
CC(C)C[C@H](NC(=O)[C@@H](N)Cc1ccccc1)C(=O)NCc1cc(=O)c(O)c[nH]1,IC50,Tyrosinase [1],6.93 µM
O=C(N[C@@H](Cc1ccccc1)C(=O)OCc1cc(=O)c(O)c[nH]1)OCc1ccccc1,IC50,Tyrosinase [1],1.95 µM
same,IC50,Tyrosinase [2],8.97 µM
same,inhibition,[3],Active
same,Ki,Tyrosinase [4],17.2 µM
same,Ki,Tyrosinase [5],22.1 µM
same,inhibition,[6],Active
same,Activity,[7],Active
same,Activity,[8],97.52%
same,Activity,[9],88.92%
C[C@H](NC(=O)OCc1ccccc1)C(=O)OCc1cc(=O)c(O)c[nH]1,IC50,Tyrosinase [1],11.8 µM
N[C@@H](Cc1ccccc1)C(=O)N[C@@H](Cc1ccccc1)C(=O)NCc1cc(=O)c(O)c[nH]1,IC50,Tyrosinase [1],2.79 µM
same,IC50,Tyrosinase [2],26.2 µM
same,inhibition,[3],Active
same,Ki,Tyrosinase [4],34.4 µM
same,Ki,Tyrosinase [5],79 µM
same,inhibition,[6],Active
